{
  "source": "paper PMC7702303",
  "about": "“Biochemical and transcript level differences between the three human phosphofructokinases show optimisation of each isoform for specific metabolic niches” (Biochemical Journal, 2020)",
  "origin": "cited, not measured here",
  "key": {"[1]": {"tested_on": "PFKL", "settings": "cited from earlier work"}, "[2]": {"tested_on": "PFKP", "settings": "cited from earlier work"}, "[3]": {"tested_on": "PFK-P (HeLa cell)", "design": "method as in Moreno-Sanchez et al(10) 2012", "settings": "tissue supernatant, ATP 550-700M, ref Moreno-Sanchez et al(10) 2012; cited from earlier work"}, "[4]": {"tested_on": "PFK-M (rat heart)", "design": "method as in Moreno-Sanchez et al(10) 2012", "settings": "tissue supernatant, ATP 550-700M, ref Moreno-Sanchez et al(10) 2012; cited from earlier work"}, "[5]": {"settings": "ref Sanchez-Martinez et al., 2000"}, "[6]": {"settings": "ref Foe and Kemp, 1985, read-out: IC50 or AC50 (inhibitor)"}, "[7]": {"settings": "ref Vora 1985, read-out: IC50 or AC50 (inhibitor)"}},
  "note": "pEC50, pIC50, pKi: −log10 of the molar value. Read-outs that look alike come from different tables or passages of the source.",
  "data": [
    {"smiles": "Nc1ncnc2c1ncn2[C@@H]1O[C@H](COP(=O)(O)O)[C@@H](O)[C@H]1O", "note": "[AMP]", "values": [
      {"measurement": "IC50 or AC50 (activator)", "setting": "[1]; ref Foe and Kemp, 1985", "result": 10, "unit": "µM"},
      {"measurement": "IC50 or AC50 (activator)", "setting": "[2]; ref Foe and Kemp, 1985", "result": 75, "unit": "µM"},
      {"measurement": "IC50 or AC50 (activator)", "setting": "[2]; [5]", "result": 8, "unit": "µM"}
    ]},
    {"smiles": "O=C(O)CC(O)(CC(=O)O)C(=O)O", "note": "[Citrate]", "values": [
      {"measurement": "pIC50", "setting": "[1]; [6]", "result": "< 2.70"},
      {"measurement": "pIC50", "setting": "[1]; [7]", "result": 3.74},
      {"measurement": "pIC50", "setting": "[2]; [6]", "result": 3.12},
      {"measurement": "pIC50", "setting": "[2]; ref Sanchez-Martinez et al., 2000, read-out: IC50 or AC50 (inhibitor)", "result": 3.40},
      {"measurement": "pIC50", "setting": "[2]; [7]", "result": 4.10}
    ]},
    {"smiles": "O=C(CO)[C@@H](O)[C@H](O)[C@H](O)COP(=O)(O)O", "note": "[F6P, fructose 6-phosphate]", "values": [
      {"measurement": "KmF6P", "setting": "[3]", "result": 1100, "unit": "µM"},
      {"measurement": "KmF6P", "setting": "[4]", "result": 145, "unit": "µM"}
    ]},
    {"smiles": "O=P(O)(O)OC[C@H]1O[C@@](CO)(OP(=O)(O)O)[C@@H](O)[C@@H]1O", "note": "[F26BP, fructose 2,6-bisphosphate]", "values": [
      {"measurement": "IC50 or AC50 (activator)", "setting": "[1]; ref Foe and Kemp, 1985", "result": 0.05, "unit": "µM"},
      {"measurement": "IC50 or AC50 (activator)", "setting": "[1]; ref Van Schaftingen et al 1981", "result": 0.04, "unit": "µM"},
      {"measurement": "IC50 or AC50 (activator)", "setting": "[1]; unit inferred, ref Vora 1985", "result": 100, "unit": "µM"},
      {"measurement": "IC50 or AC50 (activator)", "setting": "[2]; ref Foe and Kemp, 1985", "result": 4.5, "unit": "µM"},
      {"measurement": "pEC50", "setting": "[2]; ref Sanchez-Martinez et al., 2000, read-out: Kact", "result": 5.66},
      {"measurement": "IC50 or AC50 (activator)", "setting": "[2]; unit inferred, ref Vora 1985", "result": 100, "unit": "µM"}
    ]},
    {"smiles": "C=C(OP(=O)(O)O)C(=O)O", "note": "[PEP, phosphoenolpyruvate]", "values": [
      {"measurement": "pKi", "setting": "[2]; [5]", "result": 2.56}
    ]}
  ]
}
